Tests used:
[1] = tested on: adhesion between the cell-lined intravascular endothelial cell strain #5-1 and the cancer cells HL-60; test: Adhesion inhibition of [35S]methionine-labeled HL-60 cancer cells to cell-lined intravascular endothelial cell strain #5-1 (FIGS. 9(a), 9(b)); format: cell-based, human; conditions: at a concentration at which the Ia or Ib sugar chain exhibited adhesion inhibiting activity
Procedure: (4) Next, how much adhesion of the cancer cell to the intravascular endothelial cells thus cultivated was inhibited by the addition of the sugar chain obtained above to the intravascular endothelial cells was examined. First, intravascular endothelial cells were placed on one plane of a 96-well plate, and appearance of E-selectin was induced by adding interleukin-1β to the cells. The cultivation for about 3 hours made E-selectin appear. The Ia type or Ib type sugar chain was added to it, and 1×10^4 cancer cells labeled with [^35 S] methionine were added to it, and the mixture was left at 37° C. for 30 minutes as it was. Thereafter, the mixture was immersed in and washed with PBS, and those cancer cells not adhered were washed off. The cells were recovered by adding 100 μl of a 0.1 N aqueous solution of sodium hydroxide to each of the 96-well plates, and a residual radioactivity value was measured by using a liquid scintillation counter.

[2] = tested on: adhesion of the cancer cells HL-60 to the intravascular endothelial cells; test: Microscopic observation of adhesion of HL-60 cancer cells to intravascular endothelial cells (FIG. 8); format: cell-based, human; conditions: interleukin-1β added (FIG. 8b) vs not added (FIG. 8a)
Text: Slender, large cells are intravascular endothelial cells, and whitish, bright, round cells are cancer cells HL-60.

[3] = tested on: E-selectin; test: E-selectin appearance on intravascular endothelial cells by fluorescent microscopy with E-selectin antibody (FIG. 7); format: cell-based; conditions: interleukin-1β added (FIGS. 7(a), 7(b)) vs not added; human normal cells and strain #5
Procedure: FIGS. 7(a) through 7(d) are microphotographs obtained by photographing with a fluorescent microscope to confirm whether E-selectin was produced or not at the surfaces of the intravascular endothelial cells, through coloring the human normal intravascular endothelial cells and the cell-lined human intravascular endothelial cell strains #5 with E-selectin antibody. As compared with cases in which no interleukin-1β was added (FIGS. 7(c) and 7(d)), it is clear that appearance of E-selectin was induced in cases where interleukin-1β was added (FIGS. 7(a) and 7(b)).

Substance	adhesion inhibiting activity [1]	adhesion of the cancer cells to the intravascular endothelial cells (microphotographs) [2]	appearance of E-selectin [3]
colominic acid	not almost exhibited		
interleukin-1β: added to the cells to induce appearance of E-selectin		more conspicuous	induced

Source: US5939404A, “Cancer metastasis inhibitor containing a streptococcus agalactiae Ia type or Ib type surface polysaccharide as a main ingredient” (NGK Insulators, Ltd., priority 1997, dated 1999)
